Laboratory results as given in PMC12281487, “Discovery and Validation of a Novel Class of Necroptosis Inhibitors Targeting RIPK1” (ACS Chemical Biology, 2025).
pEC50: −log10 of the molar value. “Also recorded” adds a separate entry of the source. Where a name gives a salt, the structure may show the parent alone. Read-outs that look alike come from different tables or passages of the source.

How the values were obtained:
RIPK1 = molecular target: T1, RIPK1 (Homo sapiens, UniProt Q13546); experiment: Streptavidin mass shift assay (photoaffinity labeling, target engagement) in I2.1 cells; type: cell-based; details: particularly after 5 min of UV irradiation
T1 construct: Following incubation of I2.1 cells with the probe, irradiation to induce photocrosslinking; endogenous in cells; host or cells: I2.1 FADD-deficient Jurkat T cells (ATCC, CRL-2572)
T1 sequence (Q13546 1-671): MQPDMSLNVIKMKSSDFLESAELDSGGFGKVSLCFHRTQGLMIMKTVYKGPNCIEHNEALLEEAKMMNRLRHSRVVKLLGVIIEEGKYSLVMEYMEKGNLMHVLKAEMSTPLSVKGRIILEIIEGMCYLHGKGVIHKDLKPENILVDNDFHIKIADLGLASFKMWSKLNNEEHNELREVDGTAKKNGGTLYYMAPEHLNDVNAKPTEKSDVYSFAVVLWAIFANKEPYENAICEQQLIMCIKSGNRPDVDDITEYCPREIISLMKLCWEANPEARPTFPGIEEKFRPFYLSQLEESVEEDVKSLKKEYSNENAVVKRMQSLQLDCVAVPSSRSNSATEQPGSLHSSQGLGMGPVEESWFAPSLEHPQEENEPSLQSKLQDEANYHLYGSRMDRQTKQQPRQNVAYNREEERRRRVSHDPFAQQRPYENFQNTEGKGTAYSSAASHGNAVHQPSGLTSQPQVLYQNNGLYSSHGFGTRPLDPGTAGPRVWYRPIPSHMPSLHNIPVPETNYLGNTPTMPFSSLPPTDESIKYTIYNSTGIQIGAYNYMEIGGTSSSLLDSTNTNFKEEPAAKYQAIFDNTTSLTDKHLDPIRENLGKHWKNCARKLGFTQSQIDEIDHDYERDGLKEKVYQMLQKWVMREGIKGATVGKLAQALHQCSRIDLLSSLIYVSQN
Protocol: Target engagement was confirmed by Streptavidin mass shift assay, whereby lysates are incubated with streptavidin and subsequently separated by SDS–PAGE. The high stability of streptavidin at a range of temperatures, in various detergents and pH, in combination with the extremely high affinity for biotin means the streptavidin–biotin interaction is not separated during gel electrophoresis, resulting in a mass shift of biotin-labeled proteins in the presence of streptavidin, which can be visualized by Western blot (Figure a).
I2.1 cells were seeded in sterile six-well plates at a density of 2 × 10^6 cells per well and incubated at 37 °C overnight. 1000× stocks of the desired concentration of compound in DMSO were preprepared. […]
Cells were transferred to a microcentrifuge tube, centrifuged at 200g for 5 min, and media removed. […] Protein concentration was determined using the DC Protein Assay (Bio-Rad) in a 96-well plate as per the manufacturer’s instructions and the concentration adjusted to 1–2 mg mL^–1 using lysis buffer. […]
Samples were prepared by adding 4 μL of 4× loading buffer to 10 μL of the protein samples and boiling at 95 °C for 10 min. […] In-gel fluorescence was detected by using a Typhoon FLA 9500 biomolecular imager (750 V, 100 μm pixels). […]

[1] = system: RIPK1 Ser166 phosphorylation; experiment: Western blot of RIPK1 Ser166 phosphorylation in I2.1 cells; type: cell-based, human; details: for phosphorylation of RIPK1 Ser166 after TNF: prior treatment with 10 μM compound
Protocol: All compound treatments were performed with a preprepared 1000× stock of the desired concentration in DMSO and added directly to the relevant plate, with a final concentration of 0.1% DMSO on the cells. TNF (final concentration 575 pM) was added to induce necroptosis, the cells incubated for 4 h and harvested.
(§1) Cells were transferred to a microcentrifuge tube and centrifuged at 200g for 5 min, and media were removed. Cells were washed with PBS and lysed with 100 μL of lysis buffer (radioimmunoprecipitation assay lysis buffer, Sigma-Aldrich, R0278) supplemented with 1× phosphatase inhibitor cocktail 2 (Sigma, P5726) and 1× complete EDTA-free protease inhibitor cocktail (Sigma, […])) on ice for 30 min. The lysate was collected by centrifugation at 17,000g, 4 °C for 5 min, and the lysate was transferred to a new microcentrifuge tube. Protein concentration was determined using the DC Protein Assay (Bio-Rad) in a 96-well plate as per the manufacturer’s instructions and subsequently adjusted to 1 mg mL^–1 using lysis buffer. Samples were prepared by adding 4 μL of 4× loading buffer (Biorad, 161-0747) containing β-mercaptoethanol to 12 μL of protein sample and boiling at 95 °C for 10 min. 14 μL of each sample was loaded onto a 4–15% Mini-PROTEAN TGX precast gel (Biorad, 456-1086) and run in 1× running buffer (0.25 M Tris, 0.2 M glycine, 0.1% (w/v) SDS) for 1.15 h at 130 V. Either 2 μL of precision plus protein all blue prestained protein standards (Bio-Rad, 1610373) or precision plus protein dual color standards (Bio-Rad, 1610374) was used in at least one well.
Proteins were transferred onto a nitrocellulose membrane (GE Healthcare) using the Trans-Blot Turbo Transfer System (Biorad, 1704150) at 2.5 A and 25 V for 7 min. The membrane was stained with Ponceau S to confirm protein transfer prior to blocking with 5% (w/v) nonfat dried skimmed milk in TBS-T (1× Tris-buffered saline, 0.1% (v/v) Tween-20) at rt for 1 h. Staining with the desired primary antibody in 5% (w/v) nonfat dried skimmed milk in TBS-T was performed overnight at 4 °C. The blot was washed with TBS-T at rt (3 × 5 min) and stained with secondary antibody in 5% (w/v) nonfat dried skimmed milk in TBS-T for 1 h at rt. The blot was washed with TBS-T at rt (3 × 5 min), visualized with Immobilon Crescendo Western HRP substrate, and imaged using ImageQuant LAS-4000 Imaging System (Fujifilm), and the contrast normalized in Fiji.

[2] = system: I2.1 FADD–/– human Jurkat cells; experiment: IncuCyte necroptosis assay in I2.1 cells; details: for pEC50: read-out: EC50 (95% CI), necroptosis inhibition; for EC50 values of well-characterized necroptosis inhibitors (assay validation), in words: Figure S1e
Protocol: A cell-based assay was established to monitor necroptosis in I2.1 cells using the IncuCyte S3 live cell microscopy platform (Figure S1a). Necroptosis was induced by treatment with TNF, and Sytox Green was used to monitor membrane permeabilization over time as an indicator of progressive necroptotic cell death (Figure S1b–d), allowing determination of the EC50 of candidate necroptosis inhibitors.
I2.1 cells were seeded in a sterile 96-well plate (Greiner) at 20,000 cells per well and incubated at 37 °C overnight. The cells were treated with a final concentration of 600 pM TNF, 1 μM Sytox Green, and compounds in a dose-dependent manner. Wells containing TNF and Sytox Green served as positive control. Wells containing DMSO and Sytox Green served as a negative control. The plate was placed into an IncuCyte S3 Live Cell Analysis System (Sartorius) and readings for phase and green fluorescence were taken every hour for 24 h, with 4 images per well. The images were analyzed with IncuCyte 2021C software and the Green Integrated Intensity Per Image/Phase Area Per Image (GCU × μm^2/image/μm^2/image or GP) was exported. The background at t = 0 h was subtracted, and the linear slope (t = 3–7 h) was calculated by plotting GP against time. The percent inhibition of necroptosis was determined by normalizing to the positive and negative controls and graphing against the [compound]. EC50 values were determined using Prism 10 for each replicate, which were then used to calculate the geometric mean EC50 and associated 95% CIs.
I2.1 cells in a 96-well plate were treated with TNF to induce necroptosis, a dilution series of the candidate necroptosis inhibitor and Sytox Green to monitor cell death. Plates were placed in the IncuCyte® and imaged every hour for 24 h. Cell death was measured over time and used to determine the proportion of necroptotic cells compared to those without necroptosis induction or not treated with an inhibitor. The linear portion of the graph was used to determine an initial rate for calculation of the EC50. TNF with Sytox Green and Sytox Green alone were used as positive and negative controls, respectively. […] EC50 values are expressed as the geometric mean with a 95% confidence interval (CI) of at least three biological replicates.

Aurora kinase B = Aurora kinase B (Homo sapiens, UniProt Q96GD4); experiment: Kinase panel screen (SelectScreen, Z-lyte); type: biochemical; details: single concentration of 1 µM, % inhibition, Figure S2c
Aurora kinase B, sequence (Q96GD4 whole entry): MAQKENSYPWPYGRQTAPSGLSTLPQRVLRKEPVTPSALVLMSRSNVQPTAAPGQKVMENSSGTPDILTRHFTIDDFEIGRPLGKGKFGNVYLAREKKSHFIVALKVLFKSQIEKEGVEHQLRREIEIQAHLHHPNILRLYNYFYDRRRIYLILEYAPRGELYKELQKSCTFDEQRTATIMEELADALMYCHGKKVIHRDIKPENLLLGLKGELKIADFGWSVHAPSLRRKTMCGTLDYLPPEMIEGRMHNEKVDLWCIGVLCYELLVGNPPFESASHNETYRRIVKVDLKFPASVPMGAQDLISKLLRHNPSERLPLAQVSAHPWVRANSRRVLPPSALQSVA
Protocol: (a) Western blot analysis of RIPK1, RIPK3 and MLKL phosphorylation in HT-29 cells with treatment of necroptosis inhibitors and the 7PQ series. Results are representative of two experiments. […] Results are representative of two experiments. (c) Kinase activity panel screen. Compounds were screened at a single concentration of 1 µM at Thermofisher.
The kinase data was provided by Thermofisher SelectScreen Biochemical Kinase Profiling service using the Z-lyte technology. Each compound was profiled at […] against a representative panel of 25 kinases.

C57BL/6J mice = experiment: TNF-induced SIRS murine model; details: 5 mg/kg i.v. 15 min before TNF 0.5 mg/kg i.v.
Protocol: Male C57BL/6J mice of 18–25 g were used at the age of 6–8 weeks. Three animals were included in each experimental group. All animal experiments were carried out with the permission of the local animal ethical committee in accordance with the EU Directive (2010/63/EU), Portuguese laws (DL113/2013, 2880/2015, 260/2016), and all relevant legislations. Animals received humane care in a temperature-controlled environment with a 12 h light–dark cycle and ad libitum access to pelleted chow and water, complying with the Institute’s guidelines, and as outlined in the “Guide for the Care and Use of Laboratory Animals” prepared by the National Academy of Sciences and published by the National Institutes of Health (NIH publication 86-23 revised 1985). […] TNF was diluted in sterile PBS. […] All injections were administered intravenously (i.v.).

HT-29 cells = experiment: IncuCyte necroptosis assay in HT-29 cells; type: cell-based, human; details: TNF, birinapant and Z-VAD-FMK induced; Figure S1f
Source text: Wells containing TSZ served as a positive control.

[3] = system: RIPK1, RIPK3 and MLKL phosphorylation; experiment: Western blot of RIPK1, RIPK3 and MLKL phosphorylation in HT-29 cells; type: cell-based, human; details: TNF, birinapant and Z-VAD-FMK
Protocol: All compound treatments were performed with a preprepared 1000× stock of the desired concentration and added directly to the relevant plate with a final concentration of 0.1% DMSO on the cells. A combination of TNF (final concentration of 1.2 nM), Birinapant (final concentration 100 nM), and Z-VAD-FMK (final concentration 20 μM) was added to induce necroptosis, the cells incubated for 7 h, and harvested.
as §1, with “14 μL of each sample was loaded onto a 4–15% Mini-PROTEAN TGX precast gel (Biorad, 456-1086) and run in 1× running buffer (0.25 M Tris, 0.2 M glycine, 0.1% (w/v) SDS) for 1.15 h at 130 V. Either 2 μL of precision plus protein all blue prestained protein standards (Bio-Rad, 1610373) or precision plus protein dual color standards (Bio-Rad, 1610374) was used in at least one well.” left out

[4] = TNF-induced necroptosis, I2.1 cells, Sytox Green, geometric mean with 95% CI, at least three biological replicates

C#CCN(CCC1(C)N=N1)S(=O)(=O)c1ccc(-c2ccc3cccnc3c2)cc1 [7PQYnD, N-(2-(3-Methyl-3H-diazirin-3-yl)ethyl)-N-(prop-2-yn-1-yl)-4-(quinolin-7-yl)benzenesulfonamide]
engagement of RIPK1 by the probe (streptavidin-shifted band) (RIPK1): Dose-dependent engagement of RIPK1 | phosphorylation of RIPK1 Ser166 after TNF [1]: blocked | pEC50 ([2]; Homo sapiens, Jurkat): 5.05 | fold less potent than the parent compounds AZ’902 and AZ’320 (necroptosis inhibition) ([2]; I2.1 cells): 2–5 fold

CS(=O)(=O)CC1CN(S(=O)(=O)c2ccc(-c3ccc4cccnc4c3)cc2)C1 [AZ’320, 7-(4-((3-((Methylsulfonyl)methyl)azetidin-1-yl)sulfonyl)phenyl)quinoline]
dose dependence of the effect on phosphorylation of RIPK1 Ser166 [1]: dose dependent | off-target activity in a panel of 25 kinases (Aurora kinase B): off–target activity observed primarily against Aurora kinase B | pEC50 ([2]; Homo sapiens, Jurkat): 5.31 | effects on temperature and body weight after TNF (C57BL/6J mice): rescuing effects on temperature and body weight | protection from TNF-induced mortality (survival) (C57BL/6J mice; 3 mice per group): completely reverted the toxic effects induced by TNF; also recorded: preventing mortality

CC(=O)N1CC[C@H](CN(C)S(=O)(=O)c2ccc(-c3ccc4cccnc4c3)cc2)C1 [AZ’902, (S)-N-((1-Acetylpyrrolidin-3-yl)methyl)-N-methyl-4-(quinolin-7-yl)benzenesulfonamide]
necroptosis inhibition activity in HT-29 cells (HT-29 cells): confirmed | dose dependence of the effect on phosphorylation of RIPK1 Ser166 [1]: dose dependent | phosphorylation of RIPK1 Ser166 after TNF [1]: blocked | off-target activity in a panel of 25 kinases (Aurora kinase B): off–target activity observed primarily against Aurora kinase B | pEC50 ([2]; Homo sapiens, Jurkat): 5.80

CC(C)S(=O)(=O)c1ccc2nccc(Nc3ccc4scnc4c3)c2c1 [GSK’872, reference compound]
phosphorylation of RIPK1 Ser166 after TNF [1]: no inhibition | EC50 values of well-characterized necroptosis inhibitors (assay validation), in words ([2]; I2.1 cells): consistent with those previously reported | phosphorylation of necrosome components (RIPK1, RIPK3, MLKL) [3]: inhibited phosphorylation of RIPK3 and MLKL but not RIPK1

COc1nccnc1NS(=O)(=O)c1ccc(NC(=O)/C=C/c2ccc([N+](=O)[O-])s2)cc1 [NSA, Necrosulfonamide, reference compound]
EC50 values of well-characterized necroptosis inhibitors (assay validation), in words ([2]; I2.1 cells): consistent with those previously reported | phosphorylation of necrosome components (RIPK1, RIPK3, MLKL) [3]: retained phosphorylation of all components of the necrosome

CN1C(=O)NC(Cc2c[nH]c3c(Cl)cccc23)C1=O (centres unmarked) [Nec-1s, reference compound]
EC50 values of well-characterized necroptosis inhibitors (assay validation), in words ([2]; I2.1 cells): consistent with those previously reported

CC(=O)N1CC[C@@H](CN(C)S(=O)(=O)c2ccc(-c3ccc4cccnc4c3)cc2)C1 [compound 1, (R)-N-((1-Acetylpyrrolidin-3-yl)methyl)-N-methyl-4-(quinolin-7-yl)benzenesulfonamide]
pEC50 ([2]; Homo sapiens, Jurkat): 6.00

CN(C[C@H]1CCNC1)S(=O)(=O)c1ccc(-c2ccc3cccnc3c2)cc1 [compound 2, (S)-N-Methyl-N-(pyrrolidin-3-ylmethyl)-4-(quinolin-7-yl)benzenesulfonamide·HCl]
pEC50 ([2]; Homo sapiens, Jurkat): 5.77

CC(C)(C)OC(=O)N1CC[C@H](CNC(=O)c2ccc(-c3ccc4cccnc4c3)cc2)C1 [compound 4, tert-Butyl (R)-3-((4-(Quinolin-7-yl)benzamido)methyl)pyrrolidine-1-carboxylate]
pEC50 ([2]; Homo sapiens, Jurkat): 5.52

CC(C)(C)OC(=O)N1CC[C@@H](NC(=O)c2ccc(-c3ccc4cccnc4c3)cc2)C1 [compound 5, tert-Butyl (R)-3-(4-(Quinolin-7-yl)benzamido)pyrrolidine-1-carboxylate]
pEC50 ([2]; Homo sapiens, Jurkat): 5.17

O=C(c1ccc(-c2ccc3cccnc3c2)cc1)N1CCOCC1 [compound 6, Morpholino(4-(quinolin-7-yl)phenyl)methanone]
pEC50 ([2]; Homo sapiens, Jurkat): 4.64

O=C(c1ccc(-c2ccc3ccncc3c2)cc1)N1CCOCC1 [compound 7, (4-(Isoquinolin-7-yl)phenyl)(morpholino)methanone]
EC50 (95% CI), necroptosis inhibition [2, 4]: Inactive

O=C(c1ccc(-c2ccc3cnccc3c2)cc1)N1CCOCC1 [compound 8, (4-(Isoquinolin-6-yl)phenyl)(morpholino)methanone]
EC50 (95% CI), necroptosis inhibition [2, 4]: Inactive

O=C(c1ccc(-c2ccc3ncccc3c2)cc1)N1CCOCC1 [compound 9, Morpholino(4-(quinolin-6-yl)phenyl)methanone]
EC50 (95% CI), necroptosis inhibition [2, 4]: Inactive

O=C(c1ccc(-c2cnc3ccccc3c2)cc1)N1CCOCC1 [compound 10, Morpholino(4-(quinolin-3-yl)phenyl)methanone]
EC50 (95% CI), necroptosis inhibition [2, 4]: Inactive

O=C(c1ccc(-c2ccc3ccccc3n2)cc1)N1CCOCC1 [compound 11, Morpholino(4-(quinolin-2-yl)phenyl)methanone]
EC50 (95% CI), necroptosis inhibition [2, 4]: Inactive

O=C(c1ccc(-c2ccc3nccnc3c2)cc1)N1CCOCC1 [compound 12, Morpholino(4-(quinoxalin-6-yl)phenyl)methanone]
EC50 (95% CI), necroptosis inhibition [2, 4]: Inactive; also recorded: loss of activity

tert-Butyl(S)-3-(((N-methyl-4-(quinolin-7-yl)phenyl)sulfonamido)methyl)pyrrolidine-1-carboxylate [compound 3]
pEC50 [2, 4]: 5.60
